According to the supplement of paper PMC11208160:

Assay: recombinant UMI read abundance after kanamycin selection (control-corrected) (log10(CPM+1)); higher = more efficient recombination; extreme values may be limits of the assay; sequences stand for … in AGTGCAGAGAAAATCGGCCAGTTTTCTCTGCCTGCAGTCCGCATGCCGTGGGACCCCTTGGGTTCTAACCTGTTGCCTAGATTTATGCAGCGGACTGCCTTTCTCCCAAAGTGATAAACCGG…AGGTTGGTTTCACT; site = the 11-nt donor
Method in brief: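 Values, expressed as log10(CPM+1), derive from recombinant UMI counts converted to CPM, averaged across replicates and scaled by control-derived factors. Plating was with IPTG (0.07 mM) plus kanamycin or unselected, two replicates each. The screen pooled donor and donor-binding-loop pairs for the IS621 bridge recombinase in Escherichia coli.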
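Note: IS621 bridge recombinase in Escherichia coli cells against a fixed T5 target plasmid.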

| Sequence | recombinant UMI read abundance (log10) |
| --- | --- |
| TCCAATTCATGGACCGGTTTTCCCGGTAATCCGTATTTGCC (site TCCCATTCTGG) | 0 |
| TCCAATTCATGGACCGGTTTTCCCGGTAATCCGTATTTGCC (site TCCGATTCTGG) | 0 |
| TCCAATTCATGGACCGGTTTTCCCGGTAATCCGTATTTGCC (site TCCTATTCTGG) | 0 |
| TCCAATTCATGGACCGGTTTTCCCGGTAATCCGTATTTGCC (site TCGAATTCTGG) | 0 |
| TCCAATTCATGGACCGGTTTTCCCGGTAATCCGTATTTGCC (site TCTAATTCTGG) | 0 |
| TCCAATTCATGGACCGGTTTTCCCGGTAATCCGTATTTGCC (site TGCAATTCTGG) | 0 |
| TCCAATTCATGGACCGGTTTTCCCGGTAATCCGTATTTGCC (site TTCAATTCTGG) | 0 |
| TCCAATTCATGGACCGGTTTTCCCGGTAATCCGTATTTGTC (site TCCAATTCTGA) | 0 |
| TCCAATTCATGGACCGGTTTTCCCGGTAATCCGTATTTGTC (site TCCAATTCTGC) | 0 |
| TCCAATTCATGGACCGGTTTTCCCGGTAATCCGTATTTGTC (site TCCAATTCTGG) | 0 |
| TCCAATTCATGGACCGGTTTTCCCGGTAATCCGTATTTGTC (site TCCAATTCTGT) | 0 |
| TCCACCGCATGGACCGGTTTTCCCGGTAATCCGTATTTGCC (site TCCACCGCTAG) | 0.0325 |
| TCCACCGCATGGACCGGTTTTCCCGGTAATCCGTATTTGCC (site TCCACCGCTCG) | 0.0335 |
| TCCACCGCATGGACCGGTTTTCCCGGTAATCCGTATTTGCC (site TCCACCGCTGG) | 0 |
| TCCACCGCATGGACCGGTTTTCCCGGTAATCCGTATTTGCC (site TCCACCGCTTG) | 0.00442 |
| TCCAGTACATGGACCGGTTTTCCCGGTAATCCGTATTTGAG (site TCCAGTACTCT) | 0.00906 |
| TCCATATCATGGACCGGTTTTCCCGGTAATCCGTATTTGTC (site ACCATATCTGA) | 0 |
| TCCATATCATGGACCGGTTTTCCCGGTAATCCGTATTTGTC (site CCCATATCTGA) | 0 |
| TCCATATCATGGACCGGTTTTCCCGGTAATCCGTATTTGTC (site GCCATATCTGA) | 0 |
| TCCCACACATGGACCGGTTTTCCCGGTAATCCGTATTTGTA (site ACCCACACTTA) | 0.0202 |
| TCCCACACATGGACCGGTTTTCCCGGTAATCCGTATTTGTA (site CCCCACACTTA) | 0.0988 |
| TCCCACACATGGACCGGTTTTCCCGGTAATCCGTATTTGTA (site GCCCACACTTA) | 0.0195 |
| TCCCACACATGGACCGGTTTTCCCGGTAATCCGTATTTGTA (site TCCCACACTTA) | 0.42 |

| Sequence | recombinant UMI read abundance (log10) |
| --- | --- |
| TCCCACTCATGGACCGGTTTTCCCGGTAATCCGTATTTGGG (site TCCCACTCTCC) | 0.0433 |
| TCCCCAACATGGACCGGTTTTCCCGGTAATCCGTATTTGCT (site TCCCCAACTAG) | 0.417 |
| TCCCCTTCATGGACCGGTTTTCCCGGTAATCCGTATTTGAG (site TCCCCTTCTCT) | 0 |
| TCCCGCCCATGGACCGGTTTTCCCGGTAATCCGTATTTGGC (site TCCCGCCCTGC) | 0 |
| TCCGAGACATGGACCGGTTTTCCCGGTAATCCGTATTTGCG (site TCAGAGACTCG) | 0.0174 |
| TCCGAGACATGGACCGGTTTTCCCGGTAATCCGTATTTGCG (site TCCGAGACTCG) | 0.0319 |
| TCCGAGACATGGACCGGTTTTCCCGGTAATCCGTATTTGCG (site TCGGAGACTCG) | 0.0214 |
| TCCGAGACATGGACCGGTTTTCCCGGTAATCCGTATTTGCG (site TCTGAGACTCG) | 0.0115 |
| TCCGCCGCATGGACCGGTTTTCCCGGTAATCCGTATTTGCG (site TCCACCGCTCG) | 0 |
| TCCGCCGCATGGACCGGTTTTCCCGGTAATCCGTATTTGCG (site TCCCCCGCTCG) | 0.00514 |
| TCCGCCGCATGGACCGGTTTTCCCGGTAATCCGTATTTGCG (site TCCGCCGCTCG) | 0.0179 |
| TCCGCCGCATGGACCGGTTTTCCCGGTAATCCGTATTTGCG (site TCCTCCGCTCG) | 0.00863 |
| TCCGCTACATGGACCGGTTTTCCCGGTAATCCGTATTTGAT (site TCCGCTACTAT) | 0.00615 |
| TCCGGGTCATGGACCGGTTTTCCCGGTAATCCGTATTTGTA (site TCCGGGTCTTA) | 0.413 |
| TCCTAATCATGGACCGGTTTTCCCGGTAATCCGTATTTGTC (site TCCTAATCTGA) | 0 |
| TCCTACCCATGGACCGGTTTTCCCGGTAATCCGTATTTGAG (site TCCTACCCTCT) | 0.0177 |
| TCCTAGCCATGGACCGGTTTTCCCGGTAATCCGTATTTGCC (site ACCTAGCCTGG) | 0 |
| TCCTAGCCATGGACCGGTTTTCCCGGTAATCCGTATTTGCC (site CCCTAGCCTGG) | 0 |
| TCCTAGCCATGGACCGGTTTTCCCGGTAATCCGTATTTGCC (site GCCTAGCCTGG) | 0.221 |
| TCCTAGCCATGGACCGGTTTTCCCGGTAATCCGTATTTGCC (site TCCTAGCCTGG) | 0 |
| TCGACTCCATGGACCGGTTTTCCCGGTAATCCGTATTTGCC (site TCGACTCCTGG) | 0 |
| TCGAGCGCATGGACCGGTTTTCCCGGTAATCCGTATTTGCT (site TCGAGCGCTAG) | 1.5 |
| TCGAGGACATGGACCGGTTTTCCCGGTAATCCGTATTTGGC (site TCGAGGACTGC) | 0 |

| Sequence | recombinant UMI read abundance (log10) |
| --- | --- |
| TCGAGTCCATGGACCGGTTTTCCCGGTAATCCGTATTTGGC (site TCGAGTCCTGC) | 0 |
| TCGCAGCCATGGACCGGTTTTCCCGGTAATCCGTATTTGGA (site AAAGTCTCTCG) | 0 |
| TCGCATTCATGGACCGGTTTTCCCGGTAATCCGTATTTGTC (site TCGCATTCTGA) | 0 |
| TCGCCGCCATGGACCGGTTTTCCCGGTAATCCGTATTTGGG (site TCGCCGCCTCC) | 0.00807 |
| TCGCCGGCATGGACCGGTTTTCCCGGTAATCCGTATTTGGC (site TAGCCGGCTGC) | 0 |
| TCGCCGGCATGGACCGGTTTTCCCGGTAATCCGTATTTGGC (site TCGCCGGCTGC) | 0 |
| TCGCCGGCATGGACCGGTTTTCCCGGTAATCCGTATTTGGC (site TGGCCGGCTGC) | 0 |
| TCGCCGGCATGGACCGGTTTTCCCGGTAATCCGTATTTGGC (site TTGCCGGCTGC) | 0 |
| TCGCTAGCATGGACCGGTTTTCCCGGTAATCCGTATTTGCC (site TCGCTAGCTGG) | 0 |
| TCGCTGTCATGGACCGGTTTTCCCGGTAATCCGTATTTGTG (site TCGCTGTCTCA) | 0.936 |
| TCGGAGACATGGACCGGTTTTCCCGGTAATCCGTATTTGCG (site TCAGAGACTCG) | 1.72 |
| TCGGAGACATGGACCGGTTTTCCCGGTAATCCGTATTTGCG (site TCCGAGACTCG) | 0.44 |
| TCGGAGACATGGACCGGTTTTCCCGGTAATCCGTATTTGCG (site TCGGAGACTCG) | 2.41 |
| TCGGAGACATGGACCGGTTTTCCCGGTAATCCGTATTTGCG (site TCTGAGACTCG) | 0.976 |
| TCGGCGGCATGGACCGGTTTTCCCGGTAATCCGTATTTGAG (site TCGGCGGCTCT) | 0.464 |
| TCGGGTACATGGACCGGTTTTCCCGGTAATCCGTATTTGAC (site TCGGGTACTGT) | 0 |
| TCGTATTCATGGACCGGTTTTCCCGGTAATCCGTATTTGTT (site TCGTATTCTAA) | 1.24 |
| TCGTCTACATGGACCGGTTTTCCCGGTAATCCGTATTTGAT (site TCGTCTACTAT) | 0.00771 |
| TCGTGATCATGGACCGGTTTTCCCGGTAATCCGTATTTGGC (site TCGTGATCTGC) | 0 |
| TCGTTAACATGGACCGGTTTTCCCGGTAATCCGTATTTGTT (site TCGTTAACTAA) | 0.00894 |
| TCGTTCACATGGACCGGTTTTCCCGGTAATCCGTATTTGGA (site TCGTTCACTTC) | 0.0102 |
| TCGTTCTCATGGACCGGTTTTCCCGGTAATCCGTATTTGGG (site TCGTTCTCTCC) | 0.00264 |
